The conditions of series [1]: Oka et al. (2000) FEBS Lett.; cited from earlier work.
The subject of series [2] is NF-κB. The series is described as follows: NF-κB luciferase gene reporter assay (pIG3Luc) in HeLa cells. The format is cell-based. The following applies: HeLa cells, FIG. 2A, 2C. The source says:
The plasmids, pRKF-IKKα and pRKHA-IKKβ have been described previously (Oka, S., Kamata, H., Kamata, K., Yagisawa, H. and Hirata, H. (2000) FEBS Lett., 472, 196-202). pRKF-IKKαEE and pRK-HA-IKKβEE encode constitutively active mutants of IKKα, in which 176 and 180 serine residues in an activation loop are replaced by glutamic acid residues, and IKKβ, in, which 177 and 181 serine residues are replaced by glutamic acid residues, respectively. A reporter plasmid pIG3Luc for NF-κB encodes triple NF-κB binding site sequences (AGCTTCAGAGGGGACTRANSCRIPTIONCCGAGAGG) (SEQ ID NO: 2) followed by the luciferase gene. A control plasmid, pBKRLuc, was obtained from Toyobo (Toyo B-Net Co., Japan). pcDNAF-MEKK1, pRKF-p65, pEFBOSHA-Rac1-DA, and pEFBOSHA-Cdc42-DA, are the expression plasmids for MEKK1, the NF-κB subunit p65, constitutively active Rac1 and Cdc42, respectively.
Luciferase gene reporter assay and Kinase assays of IKK: HeLa cells were transfected with the reporter plasmids described above using Lipofectin (GIBCO BRL). After 24-48 hr, the luciferase activity was determined using the Luciferase Assay System (Promega). The kinase activity of IKKα and IKKβ were analyzed by immune complex kinase assay as described previously (Oka, S., Kamata, H., Kamata, K., Yagisawa, H. and Hirata, H. (2000) FEBS Lett. 472, 196-202). The substrates was using GST-IκBα(1-55) or GST-p65(399-551).
The gene expression induction by NF-κB activation plays the most important role among “life” signals by TNFα. Therefore, the NF-κB reporter gene was introduced into the cells to analyze the effect of cPrG-HCl by luciferase assay.
NF-κB is translocated into the nucleus also by activation with low-molecular-weight G proteins Rac1 and Cdc42 or MEKK1 and induces gene expression. An activated Rac1, Cdc42 or MEKK1 expression plasmid was introduced together with the NF-κB reporter gene into cells and the effect of cPrG-HCl on NF-κB activation was measured by luciferase assay (FIG. 4A and FIG. 4B).

For series [3], the system named is female ICR mice. Put plainly: Toxicity on intraperitoneal administration to mice. The format is in vivo. The following applies: 5 weeks old, 25 to 29 g.
The conditions of series [4]: as compared to FCCP.
For series [5], the system named is HeLa cells. The series is described as follows: Cell viability by trypan blue dye exclusion assay. It is filed as cell-based. The following applies: stimulation by TNFα alone, FIG. 1A. The method, then:
(§1) Cell culture: HeLa cells were cultured in Dulbecco's modified Eagle's medium supplemented with 10% fetal bovine serum and 50 μg/ml kanamycin at 37° C. in 5% CO2 in air.
(§2) Assay for apoptotic processes: Cell viability was determined by dye exclusion assay using 0.1% trypan blue. DNA fragmentation was analyzed as described previously (Kawauchi, K. et al. (1997) Biochem. Biophys. Res. Commun. 237, 543-547). In the caspase-3 assay, cells were disrupted by freeze-thaw in an extraction buffer (50 mM Tris-HCl, pH7.4, 1 mM EGTA, 5 mM EDTA, 5 mM MgCl2, 1 mM APMSF, 10 μg/ml pepstatin, 10 μg/ml leupeptin, and 1 mM DTT). Then the suspension was centrifuged at 15,000 rpm for 20 min, and the supernatants obtained were incubated at 37° C. for 60 min in a reaction buffer (50 mM Tris-HCl, pH7.4, 1 mM EDTA, 10 mM EGTA) with 20 μM of the fluorogenic substrate DEVD-AFC (Peptide Institute, Inc., Japan). Cleavage of the substrates was quantified by measuring the fluorescence of 7-amino-4-trifluomethyl coumarin released using a spectrofluorometer (Shimadzu RF5000) with excitation at 380 mn and emission at 460 nm.

In series [6] the test system is HeLa cells. The series is described as follows: DNA fragmentation (apoptosis) in HeLa cells. The format is cell-based. The note with it: stimulation by TNFα alone, FIG. 1A. Here is the method: as §1, §2
HeLa cells were treated with TNFα and cPrG.HCl and the effect of cPrG.HCl on apoptosis was examined by measuring DNA fragmentation and survivability.

As for `CC(=O)N[C@@H](CS)C(=O)O` [N-acetylcysteine], the effect on apoptosis entry in series [1] is given as “inhibits”.

For `CO/C1=C\C(C)=C\[C@@H](C)[C@@H](O)[C@@H](C)C/C(C)=C/C=C/[C@H](OC)[C@@H]([C@@H](C)[C@@H](O)[C@H](C)[C@@]2(O)C[C@@H](O)[C@H](C)[C@@H](C(C)C)O2)OC1=O` [bafilomycin, reference compound], the “TNFα-induced NF-κB activation (gene expression induction, luciferase)” value in series [2] is “not suppressed”.

Regarding `COC1=CC(c2ccc[nH]2)=N/C1=C\c1[nH]c(C)c2c1C(C)CCC2` (stereo not drawn) [cPrG, Cycloprodigiosin], in series [3], the LD50 entry is listed as “greater than 10 mg”. The ionophore activity entry in series [4] is “no ionophore activity”.

Regarding TNFα, in series [5], the “decrease in cell viability” value is “hardly observed”. In addition, the DNA fragmentation entry in series [6] is reported as “hardly observed”.

Values taken from patent publication US20040048791A1, “Method for treating neoplastic cells using cycloprodigiosin or salt thereof” (priority 2002, published 2004).
